Source: ChEMBL document CHEMBL1132216, “Studies on the monoamine oxidase-B-catalyzed biotransformation of 4-azaaryl-1-methyl-1,2,3,6-tetrahydropyridine derivatives” (J Med Chem, 1999)

Assays:
[1] = biological target: T1, Amine oxidase [flavin-containing] B (Bos taurus, UniProt P56560); test: Ratio of Kcat versus Km was determined
T1 sequence (P56560 whole entry): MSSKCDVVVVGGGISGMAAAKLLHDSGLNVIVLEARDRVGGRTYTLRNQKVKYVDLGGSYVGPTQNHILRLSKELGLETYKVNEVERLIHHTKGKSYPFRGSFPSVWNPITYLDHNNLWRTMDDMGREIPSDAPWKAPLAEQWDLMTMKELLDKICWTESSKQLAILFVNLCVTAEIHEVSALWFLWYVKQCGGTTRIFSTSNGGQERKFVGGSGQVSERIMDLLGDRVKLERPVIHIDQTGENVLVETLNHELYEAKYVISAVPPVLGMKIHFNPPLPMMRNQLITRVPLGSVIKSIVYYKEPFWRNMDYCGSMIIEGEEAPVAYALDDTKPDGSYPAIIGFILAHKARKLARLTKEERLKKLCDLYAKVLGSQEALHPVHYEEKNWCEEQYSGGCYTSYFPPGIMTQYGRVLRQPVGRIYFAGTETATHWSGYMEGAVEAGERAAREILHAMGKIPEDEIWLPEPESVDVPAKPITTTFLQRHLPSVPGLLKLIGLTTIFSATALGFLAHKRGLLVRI

[2] = physchem; details: octanol/water
Description: Partition coefficient (logP)

[3] = biological target: T1, Amine oxidase [flavin-containing] B; details: cattle
Description: Kcat against bovine liver Monoamine oxidase B

[4] = biological target: T2, Monoamine oxidase B (MAO-B) (Bos taurus, UniProt P56560); test: in vitro; details: cattle, bovine liver monoamine oxidase B
T2 sequence (P56560 whole entry): T1 sequence (P56560 whole entry)
Description: Km against bovine liver Monoamine oxidase B

| Compound | Ratio [1] | logP [2] | k cat [3] [s⁻¹] | Km [4] [µM] |
| --- | --- | --- | --- | --- |
| CN1CC=C(c2cccnc2)CC1 | 35 | 1.44 | 1.12 | 1900 |
| CN1CC=C(c2ccc[nH]2)CC1 |  | 1.27 |  |  |
| CN1CC=C(c2ccccn2)CC1 | 60 | 1.24 | 0.933 | 900 |
| CN1CC=C(c2cccn2C)CC1 |  | 1.73 |  |  |
| CN1CC=C(c2ccncc2)CC1 | 6 | 1.24 |  |  |

Second part, led by results:

| Ratio [1] | logP [2] | Compound | k cat [3] [s⁻¹] | Km [4] [µM] |
| --- | --- | --- | --- | --- |
| 410 | 2.17 | CN1CC=C(n2cccc2)CC1 |  |  |
| 3350 | 3.61 | CN1CC=C(n2ccc3ccccc32)CC1 |  |  |
|  | 1.13 | CN1CC=C(n2ccnn2)CC1 |  |  |
| 220 | 2.54 | CN1CC=C(n2cnc3ccccc32)CC1 |  |  |
|  | 1.13 | CN1CC=C(n2nccn2)CC1 |  |  |
|  | 1.31 | CN1CC=C(n2ccnc2)CC1 |  |  |
| 675 | 2.36 | CN1CC=C(n2nnc3ccccc32)CC1 |  |  |
| 850 | 2.85 | CN1CC=C(n2ncc3ccccc32)CC1 |  |  |
